Laboratory results: patent US11977067B2 (Radius Health, Inc., priority 2017, dated 2024)
“And” between values parts separate entries of the source, which are not always exact repeats. Equal entries are not always repeated. Values belong to the compound of their own block, whether it stands above or below them.

Columns and labels:
[1] = rate constants and Arrhenius analysis of (beta-Asp10) abaloparatide formation; format: physicochemical
Procedure: Rate constants at each temperature are tabulated in the top row of Table 18.
An Arrhenius plot was constructed (FIG. 8) by plotting the natural logarithm of the rate constants (k) for three storage temperatures, against the reciprocals of those temperatures in Kelvin. […] The activation energy, Ea, derived with high accuracy from the slope of a linear regression best fit of the Arrhenius plot is Ea=91,670 J/mol. […] For example, the observed rate constant at 5° C., Kobs=0.0655%/month agrees well with the predicted value, Kcalc=0.0644%/month, with only a 0.0011% absolute difference and a 1.7% relative difference.
The amount of b-Asp10 in the API must be determined with rigor and set accordingly to achieve the desired stability profile after pre-specified storage conditions. Previously, this could not be done as the methods used were insufficient for its identification and quantification. Therefore, not only has a new degradant been discovered but the methods described herein have allowed the formation rate equation to be determined and thus allow for setting its specification in the API when coupled with a desired storage stability profile. […] Similarly, the API, once formulated into cartridges is tested for purity including evaluation for (b-Asp10) right after the cartridge is formulated. This is also an important evaluation point for (b-Asp10) because the formulation itself requires time to complete mixing and filling prior to refrigeration.

[2] = (beta-Asp10) abaloparatide levels in formulated registration batches at different storage conditions; format: physicochemical
PTH receptors = target: T1, PTH receptors (Homo sapiens, UniProt Q03431); assay: qualified cell base potency assay for functional PTH activity (cAMP production); format: cell-based
T1 sequence (Q03431 27-593): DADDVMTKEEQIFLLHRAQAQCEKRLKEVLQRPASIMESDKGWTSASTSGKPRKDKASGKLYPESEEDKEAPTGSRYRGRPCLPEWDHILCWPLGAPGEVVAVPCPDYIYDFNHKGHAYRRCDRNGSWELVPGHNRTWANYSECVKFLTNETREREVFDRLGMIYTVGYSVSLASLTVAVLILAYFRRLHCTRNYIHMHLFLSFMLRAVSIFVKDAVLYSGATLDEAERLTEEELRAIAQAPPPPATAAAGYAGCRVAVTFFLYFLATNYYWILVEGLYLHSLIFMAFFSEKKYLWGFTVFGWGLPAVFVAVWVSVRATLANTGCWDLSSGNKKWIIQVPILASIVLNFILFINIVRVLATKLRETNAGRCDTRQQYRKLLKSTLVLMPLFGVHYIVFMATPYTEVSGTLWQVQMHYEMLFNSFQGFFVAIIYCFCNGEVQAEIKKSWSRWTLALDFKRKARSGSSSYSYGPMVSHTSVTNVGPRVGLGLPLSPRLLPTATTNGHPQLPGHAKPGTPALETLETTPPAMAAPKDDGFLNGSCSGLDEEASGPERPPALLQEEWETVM

(beta-Asp10) abaloparatide level (mean) in formulated samples ([2]; 5° C. long term storage condition, 0 M): 0.3%
(beta-Asp10) abaloparatide level (mean) in formulated samples ([2]; 5° C. long term storage condition, 3 M): 0.5%
(beta-Asp10) abaloparatide level (mean) in formulated samples ([2]; 5° C. long term storage condition, 6 M): 0.76%
(beta-Asp10) abaloparatide level (mean) in formulated samples ([2]; 5° C. long term storage condition, 9 M): 0.96%
(beta-Asp10) abaloparatide level (mean) in formulated samples ([2]; 5° C. long term storage condition, 12 M): 1.03%
(beta-Asp10) abaloparatide level (mean) in formulated samples ([2]; 5° C. long term storage condition, 18 M): 1.66%
(beta-Asp10) abaloparatide level (mean) in formulated samples ([2]; 5° C. long term storage condition, 24 M): 1.93%
(beta-Asp10) abaloparatide level (mean) in formulated samples ([2]; 25° C. accelerated condition, 0 M): 0.3%
(beta-Asp10) abaloparatide level (mean) in formulated samples ([2]; 25° C. accelerated condition, 1 M): 1.26%
(beta-Asp10) abaloparatide level (mean) in formulated samples ([2]; 25° C. accelerated condition, 3 M): 3.26%
(beta-Asp10) abaloparatide level (mean) in formulated samples ([2]; 25° C. accelerated condition, 6 M): 6.3%
(beta-Asp10) abaloparatide level (mean) in formulated samples ([2]; 25° C. accelerated condition, 9 M): 9.43%
(beta-Asp10) abaloparatide level (mean) in formulated samples ([2]; 25° C. accelerated condition, 12 M): 11.96%
(beta-Asp10) abaloparatide level (mean) in formulated samples ([2]; 25° C. accelerated condition, 18 M): 16.73%
(beta-Asp10) abaloparatide level (mean) in formulated samples ([2]; 25° C. accelerated condition, 24 M): 20.73%
(beta-Asp10) abaloparatide level (mean) in formulated samples ([2]; 40° C. stress condition, 0 M): 0.3%
(beta-Asp10) abaloparatide level (mean) in formulated samples ([2]; 40° C. stress condition, 1 M): 7.10%
(beta-Asp10) abaloparatide level (mean) in formulated samples ([2]; 40° C. stress condition, 3 M): 18.76%
(beta-Asp10) abaloparatide level (mean) in formulated samples ([2]; 40° C. stress condition, 6 M): 32.9%
agonist on PTH receptors (PTH receptors): active per se as an agonist
EC50 (PTH receptors; production of cAMP as a measure of bioactivity): 0.832 nM
Structure (SMILES): CC[C@H](C)[C@H](NC(=O)[C@H](CO)NC(=O)[C@H](CCCCN)NC(=O)CNC(=O)[C@H](CCCCN)NC(=O)C[C@H](NC(=O)[C@H](Cc1c[nH]cn1)NC(=O)[C@H](CC(C)C)NC(=O)[C@H](CC(C)C)NC(=O)[C@H](CCC(N)=O)NC(=O)[C@H](Cc1c[nH]cn1)NC(=O)[C@H](CCC(=O)O)NC(=O)[C@H](CO)NC(=O)[C@@H](NC(=O)[C@H](C)N)C(C)C)C(=O)O)C(=O)N[C@@H](CCC(N)=O)C(=O)N[C@@H](CC(=O)O)C(=O)N[C@@H](CC(C)C)C(=O)N[C@@H](CCCNC(=N)N)C(=O)N[C@@H](CCCNC(=N)N)C(=O)N[C@@H](CCCNC(=N)N)C(=O)N[C@@H](CCC(=O)O)C(=O)N[C@@H](CC(C)C)C(=O)N[C@@H](CC(C)C)C(=O)N[C@@H](CCC(=O)O)C(=O)N[C@@H](CCCCN)C(=O)N[C@@H](CC(C)C)C(=O)N[C@@H](CC(C)C)C(=O)NC(C)(C)C(=O)N[C@@H](CCCCN)C(=O)N[C@@H](CC(C)C)C(=O)N[C@@H](Cc1c[nH]cn1)C(=O)N[C@H](C(=O)N[C@@H](C)C(N)=O)[C@@H](C)O [(beta-Asp10) abaloparatide, [b-Asp^10, Glu^22,25, Leu^23,28,31, Aib^29, Lys^26,30]hPTHrP(1-34)NH2)]
Difference (%) between kobs and Kcalc (relative difference) ([1]; 5° C.): 2.3%
Kcalc (%/month), rate constant calculated from activation energy ([1]; 5° C.): 0.0644 %/month and 0.0674 %/month
absolute difference between Kobs and Kcalc ([1]; 5° C.): 0.0011%
kobs (%/month), observed rate constant for formation of (beta-Asp10) abaloparatide ([1]; 5° C.): 0.0655 %/month and 0.0690 %/month
Difference (%) between kobs and Kcalc ([1]; 25° C.): −5.6%
Kcalc (%/month), rate constant calculated from activation energy ([1]; 25° C.): 0.938 %/month
kobs (%/month), observed rate constant for formation of (beta-Asp10) abaloparatide ([1]; 25° C.): 0.993 %/month
Difference (%) between kobs and Kcalc ([1]; 40° C.): 3.5%
Kcalc (%/month), rate constant calculated from activation energy ([1]; 40° C.): 5.19 %/month
kobs (%/month), observed rate constant for formation of (beta-Asp10) abaloparatide ([1]; 40° C.): 5.38 %/month
activation energy, Ea ([1]; slope of linear regression of Arrhenius plot, 5° C. to 40° C.): 91,670 J/mol

Structure (SMILES): CC[C@H](C)[C@H](NC(=O)[C@H](CO)NC(=O)[C@H](CCCCN)NC(=O)CNC(=O)[C@H](CCCCN)NC(=O)[C@H](CC(=O)O)NC(=O)[C@H](Cc1c[nH]cn1)NC(=O)[C@H](CC(C)C)NC(=O)[C@H](CC(C)C)NC(=O)[C@H](CCC(N)=O)NC(=O)[C@H](Cc1c[nH]cn1)NC(=O)[C@H](CCC(=O)O)NC(=O)[C@H](CO)NC(=O)[C@@H](NC(=O)[C@H](C)N)C(C)C)C(=O)N[C@@H](CCC(N)=O)C(=O)N[C@@H](CC(=O)O)C(=O)N[C@@H](CC(C)C)C(=O)N[C@@H](CCCNC(=N)N)C(=O)N[C@@H](CCCNC(=N)N)C(=O)N[C@@H](CCCNC(=N)N)C(=O)N[C@@H](CCC(=O)O)C(=O)N[C@@H](CC(C)C)C(=O)N[C@@H](CC(C)C)C(=O)N[C@@H](CCC(=O)O)C(=O)N[C@@H](CCCCN)C(=O)N[C@@H](CC(C)C)C(=O)N[C@@H](CC(C)C)C(=O)NC(C)(C)C(=O)N[C@@H](CCCCN)C(=O)N[C@@H](CC(C)C)C(=O)N[C@@H](Cc1c[nH]cn1)C(=O)N[C@H](C(=O)N[C@@H](C)C(N)=O)[C@@H](C)O [abaloparatide, [Glu^22,25, Leu^23,28,31, Aib^29, Lys^26,30]hPTHrP(1-34)NH2)]
kinetic order of isomerization of abaloparatide to (beta-Asp10) isomer ([1]; formulated drug product): zero order kinetics
